Results from US20110110916A1, “METHODS FOR TREATING AND/OR PREVENTING CARDIOMYOPATHIES BY ERK OR JNK INHIBITION” (priority 2008, published 2011).

Key:
C2C12 cells = assay: ERK1/2 phosphorylation in C2C12 cells treated with Emd and Lmna siRNAs (immunoblot, ELISA); format: cell-based, mouse; settings: 45 μM for 24 hours
Description: (§1) Human HeLa cells and mouse C2C12 cells were maintained in a 5% CO2 atmosphere at 37° C. The cells were cultured in Dulbecco's modified Eagle's medium supplemented with 10% calf bovine serum and 0.1% gentamicin.
(§2) One day before transfection, HeLa and C2C12 cells were trypsinized, diluted with fresh medium without antibiotics and transferred to 24-well plates. Transient transfection of siRNAs was carried out using Oligofectamine (Invitrogen) as recommended by the manufacturer. Cells were preincubated in 7.5 μl OPTIMEM 1 medium (Life Technologies) and 2 μl Oligofectamine per well for 5 minutes at room temperature. During the time of this incubation, 40 μl OPTIMEM 1 medium were mixed with 2.5 μl siRNA. The two mixtures were combined and incubated for 20 minutes at room temperature for complex formation. The entire mixture was added to the cells in one well resulting in a final concentration of […] for the siRNAs. […]
(§3) Proteins were separated by SDS-PAGE, transferred to nitrocellulose membranes and blotted with primary antibodies against ERK1/2 (Santa-Cruz), pERK1/2 (Cell Signaling), lamin A/C (Santa-Cruz), emerin (Novocatra), β-actin (Sant-Cruz) and Gapdh (Santa-Cruz). […] Band densities were calculated using Scion Image software (Scion Corporation) and normalized to the appropriate total extract to control for protein loading. […]

HeLa cells = assay: ERK1/2 phosphorylation in HeLa cells treated with Emd and Lmna siRNAs; format: cell-based, human; settings: 45 μM for 24 hours
Description: as §1, §2, §3

cyclooxygenase-2 = settings: reference 137; cited from earlier work
[1] = tested on: hearts from Lmna^H222P/H222P mice; assay: Quantitative real-time RT-PCR of mRNAs in hearts of treated mice; format: in vivo, mouse; settings: for expression of Colla1, Colla2 and Fn1 / expression of Mlc-2a, NppA and NppB mRNAs: 20 weeks of age, 3 mg/kg/day from 16 to 20 weeks
Excerpt: Total RNA was extracted using the Rneasy isolation kit (Qiagen) as previously described (96). cDNA was synthesized as previously described (96) using Omniscript Reverse Transcriptase (Qiagen) on total cellular RNA. For each replicate in each experiment, RNA from tissue samples of different animals was used. Primers were designed that correspond to mouse RNA sequences using Primer3 (http://frodo.wi.mit.edu/cgi-biniprimer3/primer3_www.cgi). The real-time RT-PCR reaction contained iQ SYBR green super mix (Bio-Rad), 200 nM of each primer and 0.2 μl of template in a 25 μl reaction volume. Amplification was carried out using appropriate primers and the MyiQ Single-Color Real-Time PCR Detection System (Bio-Rad) with an initial denaturation at 95° C. for 2 min followed by 50 cycles at 95° C. for 30 s and 62° C. for 30 s. Relative levels of mRNA expression were calculated using the CT method (67). Individual expression values were normalized by comparison with Gapdh mRNA.
Real-time reverse transcription-PCR (RT-PCR) was used to quantify tissue RNA levels. Total RNA was extracted from cardiac ventricles of mice using the Rneasy isolation kit (Qiagen) as previously described. cDNA was synthesized using Superscript first strand synthesis system according to the manufacturer's instructions (Invitrogen) on total RNA. For each replicate in each experiment, RNA from tissue samples of different animals was used. Primers were designed correspond to mouse RNA sequences using Primer3 (http://frodo.wi.mit.edu/cgi-bin/primer3/primer3_www.cgi) for Nppa (forward 5′-[…]-3′ [SEQ ID NO: 4], reverse 5′-[…]-3′ [SEQ ID NO: 5]), Nppb (forward 5′-[…]-3′ [SEQ ID NO: 6], reverse 5′-[…]-3′ [SEQ ID NO: 7]), Mlc-2a (forward 5′-[…]-3′ [SEQ ID NO: 8], reverse 5′-[…]-3′ [SEQ ID NO: 9]), Colla1 (forward 5′-[…]-3′ [SEQ ID NO: 10], reverse 5′-[…]-3′ [SEQ ID NO: 11]), Colla2 (forward 5′-[…]-3′ [SEQ ID NO: 12], reverse 5′-[…]-3′ [SEQ ID NO: 13]) and Fn1 (forward 5′-[…]-3′ [SEQ ID NO: 14], reverse 5′-[…]-3′ [SEQ ID NO: 15]). The real-time RT-PCR reaction contained iQ SYBR green super mix (Bio-Rad), 200 nM of each primer, and 0.2 μl of template in a 25 μl reaction volume. Amplification was carried out using the MyiQ Single-Color Real-Time PCR Detection System (Bio-Rad) with an initial denaturation at 95° C. for […] followed by 50 cycles at 95° C. for 30 s and 62° C. for 30 s. Relative levels of mRNA expression were calculated using the ΔΔCT method (2). Individual expression values were normalized by comparison with Gapdh mRNA (forward 5′-[…]-3′ [SEQ ID NO: 16], reverse 5′-[…]-3′ [SEQ ID NO: 17]).

cyclooxygenase-1 = settings: reference 137; cited from earlier work
[2] = pilot study, 24 weeks, treated from 19 weeks

COc1cccc(-c2cc(=O)c3ccccc3o2)c1N [PD98059, 2-(2-amino-3-methoxyphenyl)-4H-1-benzopyran-4-one]
increase in pERK (immunoblot) (C2C12 cells; C2C12 cells treated with Emd and Lmna siRNAs): reduced | ERK1/2 phosphorylation (ELISA) (C2C12 cells; siRNA-treated C2C12 cells (FIG. 20B)): Inhibition of ERK1/2 | increase in pERK (immunoblot) (HeLa cells): reduced | activity against cyclooxygenase-2 (cyclooxygenase-2): has activity | expression of Colla1, Colla2 and Fn1 [1]: significantly lowered | expression of Mlc-2a, NppA and NppB mRNAs [1]: significantly decreased | expression of Elk1, Elk4, Atf2 and Atf4 ([1]; hearts at 16 weeks, treated 8 to 16 weeks): decreased expression | cardiac expression of Mlc-2a, NppA, Colla1 and Colla2 mRNAs [1, 2]: significantly reduced | cardiac expression of NppB mRNA [1, 2]: significantly reduced | activity against cyclooxygenase-1 (cyclooxygenase-1): has activity

O=C1c2ccccc2-c2n[nH]c3cccc1c23 [SP600125, anthra[1,9-cd]pyrazol-6(2H)-one]
expression of Colla1, Colla2 and Fn1 [1]: significantly lowered | expression of Mlc-2a, NppA and NppB mRNAs [1]: significantly decreased | cardiac expression of Mlc-2a, NppA, Colla1 and Colla2 mRNAs [1, 2]: significantly reduced
